Experimental data as given in a compilation of properties of binary mixtures (doi:10.1016/j.molliq.2020.114495).

Assay: xn = mol fraction of the nth substance listed
Conditions: 100 kPa

OCCO + O=S(=O)([N-]S(=O)(=O)C(F)(F)F)C(F)(F)F.[Li+]
x2 = 0
Conditions | viscosity [mPa·s]
303 K | 13.53
318.1 K | 9.59
333 K | 7.47

O=S(=O)([N-]S(=O)(=O)C(F)(F)F)C(F)(F)F.[Li+] + OCCO
Conditions | electrical conductivity, 303 K [S/m] | electrical conductivity, 318.1 K [S/m] | electrical conductivity, 333 K [S/m] | viscosity, 303 K [mPa·s] | viscosity, 318.1 K [mPa·s] | viscosity, 333 K [mPa·s]
x1 = 0.143 | 0.129 | 0.296 | 0.516 | 18.14 | 12.79 | 8.55
x1 = 0.167 | 0.275 | 0.604 | 0.928 | 19.25 | 13.57 | 8.71
x1 = 0.2 | 0.305 | 0.738 | 1.2 | 21.4 | 14.53 | 10.21
x1 = 0.25 | 0.291 | 0.623 | 1.07 | 23.79 | 16.35 | 10.61
x1 = 0.333 | 0.281 | 0.559 | 0.88 | 30.24 | 18.69 | 11.02
x1 = 0.5 | 0.275 | 0.534 | – | 58.8 | 35.26 | –
